From paper PMC10239507, “Development of allosteric and selective CDK2 inhibitors for contraception with negative cooperativity to cyclin binding” (Nature Communications, 2023)

Assays:
Assay in all cases: biochemical
[1] = target: T1, 371 kinases (kinase named in each endpoint) (Homo sapiens, UniProt P53671); conditions: LIMK2
T1 construct: purchased Reaction Biology

[2] = target: T2, 371 kinases (kinase named in each endpoint) (Homo sapiens, UniProt P48729); conditions: CK1A1
T2 construct: purchased Reaction Biology
T2 sequence (P48729 whole entry): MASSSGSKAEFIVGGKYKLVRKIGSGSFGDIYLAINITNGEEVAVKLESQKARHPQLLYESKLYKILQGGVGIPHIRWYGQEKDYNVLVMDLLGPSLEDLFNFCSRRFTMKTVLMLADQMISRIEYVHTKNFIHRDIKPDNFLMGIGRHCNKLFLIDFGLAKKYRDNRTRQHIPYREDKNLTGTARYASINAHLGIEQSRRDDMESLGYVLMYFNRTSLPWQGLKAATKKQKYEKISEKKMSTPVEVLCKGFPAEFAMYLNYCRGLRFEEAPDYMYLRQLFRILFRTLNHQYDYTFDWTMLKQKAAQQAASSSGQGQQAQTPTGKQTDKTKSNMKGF

[3] = target: T3, 371 kinases (kinase named in each endpoint) (Homo sapiens, UniProt P42681); conditions: TXK
T3 construct: purchased Reaction Biology

[4] = target: T4, 371 kinases (kinase named in each endpoint) (Homo sapiens, UniProt O14733); conditions: MKK7
T4 construct: purchased Reaction Biology

[5] = target: T5, 371 kinases (kinase named in each endpoint) (Homo sapiens, UniProt O95747); conditions: OSR1/OXSR1
T5 construct: purchased Reaction Biology

[6] = target: T6, 371 kinases (kinase named in each endpoint) (Homo sapiens, UniProt Q86Y07); conditions: VRK2
T6 construct: purchased Reaction Biology

[7] = target: T7, 371 kinases (kinase named in each endpoint) (Homo sapiens, UniProt P30530); conditions: AXL
T7 construct: purchased Reaction Biology
T7 sequence (P30530 26-894): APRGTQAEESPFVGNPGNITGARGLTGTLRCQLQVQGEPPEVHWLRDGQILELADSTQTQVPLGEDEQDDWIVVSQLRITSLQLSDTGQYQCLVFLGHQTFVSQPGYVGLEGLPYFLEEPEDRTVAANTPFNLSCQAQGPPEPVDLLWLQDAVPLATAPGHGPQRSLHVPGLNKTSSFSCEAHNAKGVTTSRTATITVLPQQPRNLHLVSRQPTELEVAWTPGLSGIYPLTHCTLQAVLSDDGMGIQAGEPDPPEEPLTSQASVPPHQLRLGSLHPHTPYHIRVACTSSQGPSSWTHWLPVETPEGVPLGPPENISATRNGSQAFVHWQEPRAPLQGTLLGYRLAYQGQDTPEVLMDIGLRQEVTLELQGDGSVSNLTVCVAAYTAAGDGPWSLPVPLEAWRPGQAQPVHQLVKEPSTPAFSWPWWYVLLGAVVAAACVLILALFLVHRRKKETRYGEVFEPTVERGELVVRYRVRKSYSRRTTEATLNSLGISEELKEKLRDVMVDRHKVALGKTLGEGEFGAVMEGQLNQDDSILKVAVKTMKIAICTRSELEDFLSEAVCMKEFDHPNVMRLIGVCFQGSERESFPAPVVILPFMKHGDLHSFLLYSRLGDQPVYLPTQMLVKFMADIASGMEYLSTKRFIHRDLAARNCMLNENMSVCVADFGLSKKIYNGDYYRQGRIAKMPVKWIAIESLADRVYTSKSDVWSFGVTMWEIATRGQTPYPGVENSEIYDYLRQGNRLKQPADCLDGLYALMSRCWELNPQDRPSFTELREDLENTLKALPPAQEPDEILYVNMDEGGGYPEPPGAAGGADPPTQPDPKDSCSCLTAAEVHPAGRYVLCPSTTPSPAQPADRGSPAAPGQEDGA

[8] = target: T8, 371 kinases (kinase named in each endpoint) (Homo sapiens, UniProt Q9HC98); conditions: NEK6
T8 construct: purchased Reaction Biology

[9] = target: T9, 371 kinases (kinase named in each endpoint) (Homo sapiens, UniProt Q9UQB9); conditions: AURORA C
T9 construct: purchased Reaction Biology

[10] = target: T10, 371 kinases (kinase named in each endpoint) (Homo sapiens, UniProt O60285); conditions: ARK5/NUAK1
T10 construct: purchased Reaction Biology

[11] = target: T11, 371 kinases (kinase named in each endpoint) (Homo sapiens, UniProt Q13237); conditions: PKG2/PRKG2
T11 construct: purchased Reaction Biology

[12] = target: T12, 371 kinases (kinase named in each endpoint) (Homo sapiens, UniProt P36507); conditions: MEK2
T12 construct: purchased Reaction Biology
T12 sequence (P36507 whole entry): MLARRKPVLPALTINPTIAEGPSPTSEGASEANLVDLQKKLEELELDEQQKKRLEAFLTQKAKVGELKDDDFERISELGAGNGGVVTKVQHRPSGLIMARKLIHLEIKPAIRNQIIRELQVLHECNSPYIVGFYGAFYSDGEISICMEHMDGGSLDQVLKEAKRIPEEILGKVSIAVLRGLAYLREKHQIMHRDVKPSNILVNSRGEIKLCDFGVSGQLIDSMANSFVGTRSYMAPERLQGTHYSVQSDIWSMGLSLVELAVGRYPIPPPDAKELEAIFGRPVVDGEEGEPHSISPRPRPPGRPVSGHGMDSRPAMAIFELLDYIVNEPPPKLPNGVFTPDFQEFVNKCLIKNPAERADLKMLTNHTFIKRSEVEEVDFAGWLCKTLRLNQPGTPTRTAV

[13] = target: T13, 371 kinases (kinase named in each endpoint) (Homo sapiens, UniProt Q9Y463); conditions: DYRK1B
T13 construct: purchased Reaction Biology

[14] = target: T14, 371 kinases (kinase named in each endpoint) (Homo sapiens, UniProt Q8TD19); conditions: NEK9
T14 construct: purchased Reaction Biology

[15] = target: T15, 371 kinases (kinase named in each endpoint) (Homo sapiens, UniProt Q5TCX8); conditions: MLK4
T15 construct: purchased Reaction Biology
T15 sequence (Q5TCX8 whole entry): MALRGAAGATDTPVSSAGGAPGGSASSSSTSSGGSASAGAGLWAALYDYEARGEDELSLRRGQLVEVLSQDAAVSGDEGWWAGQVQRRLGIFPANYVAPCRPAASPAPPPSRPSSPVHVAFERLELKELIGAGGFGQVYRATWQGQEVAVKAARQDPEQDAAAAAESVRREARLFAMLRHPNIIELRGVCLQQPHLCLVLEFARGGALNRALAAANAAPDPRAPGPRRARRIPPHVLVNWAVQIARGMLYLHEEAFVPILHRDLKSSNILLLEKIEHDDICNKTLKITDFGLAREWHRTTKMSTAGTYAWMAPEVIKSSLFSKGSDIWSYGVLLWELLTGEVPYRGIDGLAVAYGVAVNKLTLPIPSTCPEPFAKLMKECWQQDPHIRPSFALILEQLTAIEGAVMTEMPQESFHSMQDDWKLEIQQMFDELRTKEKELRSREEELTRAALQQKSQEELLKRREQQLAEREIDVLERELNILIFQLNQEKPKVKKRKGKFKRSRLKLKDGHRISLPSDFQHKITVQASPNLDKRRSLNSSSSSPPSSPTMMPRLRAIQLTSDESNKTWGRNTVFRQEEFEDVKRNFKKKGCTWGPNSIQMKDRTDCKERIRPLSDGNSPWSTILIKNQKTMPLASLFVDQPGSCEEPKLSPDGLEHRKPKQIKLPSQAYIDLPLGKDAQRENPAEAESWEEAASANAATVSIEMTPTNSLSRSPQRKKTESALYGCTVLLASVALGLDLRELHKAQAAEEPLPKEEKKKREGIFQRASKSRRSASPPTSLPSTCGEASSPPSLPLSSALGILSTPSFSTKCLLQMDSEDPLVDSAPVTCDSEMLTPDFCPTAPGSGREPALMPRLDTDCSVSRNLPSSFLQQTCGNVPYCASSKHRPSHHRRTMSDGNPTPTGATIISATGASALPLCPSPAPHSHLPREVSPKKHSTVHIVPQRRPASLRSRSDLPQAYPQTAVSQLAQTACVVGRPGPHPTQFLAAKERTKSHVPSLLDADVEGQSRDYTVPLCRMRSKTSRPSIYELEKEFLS

[16] = target: T16, 371 kinases (kinase named in each endpoint) (Homo sapiens, UniProt O15530); conditions: PDK1/PDPK1
T16 construct: purchased Reaction Biology

[17] = target: T17, 371 kinases (kinase named in each endpoint) (Homo sapiens, UniProt Q13470); conditions: TNK1
T17 construct: purchased Reaction Biology

[18] = target: T18, 371 kinases (kinase named in each endpoint) (Homo sapiens, UniProt Q02156); conditions: PKCEPSILON
T18 construct: purchased Reaction Biology

[19] = target: T19, 371 kinases (kinase named in each endpoint) (Homo sapiens, UniProt Q04912); conditions: RON/MST1R
T19 construct: purchased Reaction Biology

[20] = target: T20, 371 kinases (kinase named in each endpoint) (Homo sapiens, UniProt Q6P5Z2); conditions: PKN3/PRK3
T20 construct: purchased Reaction Biology

[21] = target: T21, 371 kinases (kinase named in each endpoint) (Homo sapiens, UniProt Q14680); conditions: MELK
T21 construct: purchased Reaction Biology

[22] = target: T22, 371 kinases (kinase named in each endpoint) (Homo sapiens, UniProt P29320); conditions: EPHA3
T22 construct: purchased Reaction Biology

[23] = target: T23, 371 kinases (kinase named in each endpoint) (Homo sapiens, UniProt P51956); conditions: NEK3
T23 construct: purchased Reaction Biology

[24] = target: T24, 371 kinases (kinase named in each endpoint) (Homo sapiens, UniProt Q96PY6); conditions: NEK1
T24 construct: purchased Reaction Biology

[25] = target: T25, 371 kinases (kinase named in each endpoint) (Homo sapiens, UniProt Q8N5S9); conditions: CAMKK1
T25 construct: purchased Reaction Biology

[26] = target: T26, 371 kinases (kinase named in each endpoint) (Homo sapiens, UniProt Q9UF33); conditions: EPHA6
T26 construct: purchased Reaction Biology

[27] = target: T27, 371 kinases (kinase named in each endpoint) (Homo sapiens, UniProt P54762); conditions: EPHB1
T27 construct: purchased Reaction Biology

[28] = target: T28, 371 kinases (kinase named in each endpoint) (Homo sapiens, UniProt P45983); conditions: JNK1
T28 construct: purchased Reaction Biology

[29] = target: T29, 371 kinases (kinase named in each endpoint) (Homo sapiens, UniProt Q96NX5); conditions: CAMK1G
T29 construct: purchased Reaction Biology

[30] = target: T30, 371 kinases (kinase named in each endpoint) (Homo sapiens, UniProt Q16513); conditions: PKN2/PRK2
T30 construct: purchased Reaction Biology

[31] = target: T31, 371 kinases (kinase named in each endpoint) (Homo sapiens, UniProt Q8WXR4); conditions: MYO3B
T31 construct: purchased Reaction Biology
T31 sequence (Q8WXR4 whole entry): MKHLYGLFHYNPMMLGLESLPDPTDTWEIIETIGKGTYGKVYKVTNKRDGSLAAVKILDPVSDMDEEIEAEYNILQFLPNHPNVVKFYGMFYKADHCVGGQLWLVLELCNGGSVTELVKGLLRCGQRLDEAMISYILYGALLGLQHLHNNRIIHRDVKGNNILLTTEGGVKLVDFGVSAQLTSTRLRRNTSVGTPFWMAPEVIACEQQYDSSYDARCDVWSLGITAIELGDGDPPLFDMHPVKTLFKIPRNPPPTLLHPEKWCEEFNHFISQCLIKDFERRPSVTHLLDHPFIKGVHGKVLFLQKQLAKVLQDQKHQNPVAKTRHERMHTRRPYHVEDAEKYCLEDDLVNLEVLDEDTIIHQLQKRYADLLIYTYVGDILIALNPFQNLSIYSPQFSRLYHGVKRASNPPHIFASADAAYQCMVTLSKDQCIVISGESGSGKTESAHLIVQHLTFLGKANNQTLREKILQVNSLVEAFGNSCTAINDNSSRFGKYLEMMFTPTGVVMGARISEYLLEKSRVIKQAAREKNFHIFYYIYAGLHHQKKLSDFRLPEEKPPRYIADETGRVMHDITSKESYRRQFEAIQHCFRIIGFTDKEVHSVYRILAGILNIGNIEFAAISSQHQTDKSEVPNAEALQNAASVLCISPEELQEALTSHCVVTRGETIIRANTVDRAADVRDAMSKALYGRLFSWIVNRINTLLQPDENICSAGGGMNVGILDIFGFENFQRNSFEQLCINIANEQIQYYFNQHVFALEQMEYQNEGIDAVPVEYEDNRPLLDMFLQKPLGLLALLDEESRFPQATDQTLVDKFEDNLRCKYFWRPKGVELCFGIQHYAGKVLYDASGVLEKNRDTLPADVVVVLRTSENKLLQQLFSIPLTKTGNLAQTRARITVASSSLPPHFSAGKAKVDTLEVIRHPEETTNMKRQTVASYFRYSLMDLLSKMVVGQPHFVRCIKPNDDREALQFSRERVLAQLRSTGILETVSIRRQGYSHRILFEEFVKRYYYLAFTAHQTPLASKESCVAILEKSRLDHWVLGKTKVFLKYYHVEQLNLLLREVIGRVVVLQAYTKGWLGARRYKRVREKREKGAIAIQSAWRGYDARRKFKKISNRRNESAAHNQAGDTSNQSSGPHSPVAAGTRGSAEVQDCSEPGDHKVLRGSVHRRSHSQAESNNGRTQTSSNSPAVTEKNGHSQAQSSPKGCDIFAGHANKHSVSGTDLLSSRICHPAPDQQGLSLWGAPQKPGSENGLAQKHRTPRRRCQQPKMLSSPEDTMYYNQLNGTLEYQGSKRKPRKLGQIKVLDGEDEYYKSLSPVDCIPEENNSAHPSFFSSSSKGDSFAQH

[32] = target: T32, 371 kinases (kinase named in each endpoint) (Homo sapiens, UniProt Q9H0K1); conditions: SIK2
T32 construct: purchased Reaction Biology

[33] = target: T33, 371 kinases (kinase named in each endpoint) (Homo sapiens, UniProt Q9Y6M4); conditions: CK1G3
T33 construct: purchased Reaction Biology

[34] = target: T34, 371 kinases (kinase named in each endpoint) (Homo sapiens, UniProt Q9UBE8); conditions: NLK
T34 construct: purchased Reaction Biology
T34 sequence (Q9UBE8 whole entry): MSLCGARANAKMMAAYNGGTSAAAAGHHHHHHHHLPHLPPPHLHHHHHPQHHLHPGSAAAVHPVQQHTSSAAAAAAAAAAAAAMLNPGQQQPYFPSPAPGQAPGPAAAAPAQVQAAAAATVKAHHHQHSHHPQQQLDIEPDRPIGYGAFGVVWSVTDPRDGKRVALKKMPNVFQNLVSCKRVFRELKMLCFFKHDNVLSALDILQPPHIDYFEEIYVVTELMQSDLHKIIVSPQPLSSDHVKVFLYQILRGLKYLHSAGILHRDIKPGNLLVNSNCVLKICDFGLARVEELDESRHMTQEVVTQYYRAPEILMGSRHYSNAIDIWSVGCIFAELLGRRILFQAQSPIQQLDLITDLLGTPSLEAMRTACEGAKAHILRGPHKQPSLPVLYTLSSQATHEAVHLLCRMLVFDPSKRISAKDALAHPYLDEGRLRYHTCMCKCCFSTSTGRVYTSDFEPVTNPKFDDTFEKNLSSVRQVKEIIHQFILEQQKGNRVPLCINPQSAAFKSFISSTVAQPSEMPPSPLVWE

[35] = target: T35, 371 kinases (kinase named in each endpoint) (Homo sapiens, UniProt P09769); conditions: FGR
T35 construct: purchased Reaction Biology

[36] = target: T36, 371 kinases (kinase named in each endpoint) (Homo sapiens, UniProt P68400); conditions: CK2A
T36 construct: purchased Reaction Biology

[37] = target: T37, 371 kinases (kinase named in each endpoint) (Homo sapiens, UniProt P42685); conditions: FRK/PTK5
T37 construct: purchased Reaction Biology
T37 sequence (P42685 whole entry): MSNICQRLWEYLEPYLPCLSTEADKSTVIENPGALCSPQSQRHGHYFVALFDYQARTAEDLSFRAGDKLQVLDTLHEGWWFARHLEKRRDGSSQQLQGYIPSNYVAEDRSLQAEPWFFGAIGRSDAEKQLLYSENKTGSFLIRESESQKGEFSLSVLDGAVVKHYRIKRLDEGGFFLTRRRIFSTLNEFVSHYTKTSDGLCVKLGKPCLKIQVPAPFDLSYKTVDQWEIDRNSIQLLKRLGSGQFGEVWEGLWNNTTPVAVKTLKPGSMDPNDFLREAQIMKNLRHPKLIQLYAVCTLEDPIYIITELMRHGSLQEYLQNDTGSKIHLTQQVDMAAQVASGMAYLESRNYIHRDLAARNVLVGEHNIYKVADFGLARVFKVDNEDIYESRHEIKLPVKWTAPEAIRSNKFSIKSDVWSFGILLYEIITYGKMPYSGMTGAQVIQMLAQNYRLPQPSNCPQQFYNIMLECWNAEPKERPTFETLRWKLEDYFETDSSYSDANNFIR

O=C(O)c1cc(C(F)(F)F)ccc1NCCc1c[nH]c2cc(Br)ccc12 [Compound 5, 2-((2-(6-Bromo-1H-indol-3-yl)ethyl)amino)−5-(trifluoromethyl)benzoic Acid]
activity at 10 µM [1]: 75.1 ± 1.7% | activity at 10 µM [2]: 91.2 ± 0.3% | activity at 10 µM [3]: 80.5 ± 0.4% | activity at 10 µM [4]: 90.6 ± 0.3% | activity at 10 µM [5]: 59.4 ± 2.8% | activity at 10 µM [6]: 94.6 ± 1% | activity at 10 µM [7]: 67.9 ± 1.8% | activity at 10 µM [8]: 77.6 ± 0.1% | activity at 10 µM [9]: 98 ± 0.2% | activity at 10 µM [10]: 75.5 ± 0.1% | activity at 10 µM [11]: 117 ± 7.9% | activity at 10 µM [12]: 110.4 ± 0.1% | activity at 10 µM [13]: 64.8 ± 1.1% | activity at 10 µM [14]: 117 ± 3.3% | activity at 10 µM [15]: 88.2 ± 0.3% | activity at 10 µM [16]: 97 ± 1% | activity at 10 µM [17]: 94.4 ± 0.5% | activity at 10 µM [18]: 96.1 ± 0.2% | activity at 10 µM [19]: 89.7 ± 2.7% | activity at 10 µM [20]: 98.3 ± 1.2% | activity at 10 µM [21]: 95.8 ± 3% | activity at 10 µM [22]: 99.7 ± 1.6% | activity at 10 µM [23]: 93.3 ± 0.4% | activity at 10 µM [24]: 91.8 ± 2.3% | activity at 10 µM [25]: 65.6 ± 1.3% | activity at 10 µM [26]: 91.9 ± 1.1% | activity at 10 µM [27]: 91.2% | activity at 10 µM [28]: 88.4 ± 1.1% | activity at 10 µM [29]: 40.8 ± 2.3% | activity at 10 µM [30]: 110 ± 1.7% | activity at 10 µM [31]: 97.8 ± 1.5% | activity at 10 µM [32]: 81 ± 0.3% | activity at 10 µM [33]: 96.3 ± 0.6% | activity at 10 µM [34]: 81.4 ± 4.1% | activity at 10 µM [35]: 83.5 ± 1.1% | activity at 10 µM [36]: 59.1 ± 0.1% | activity at 10 µM [37]: 90.1 ± 1.1%
